In patent publication US12162850B2, “Formulations” (Betagenon AB, priority 2019, dated 2024):

Columns and labels:
[1] = Single dose oral pharmacokinetic studies in rabbits; type: in vivo, male New Zealand White rabbits; details: for AUCextrap / AUC(0-inf) / AUC(0-t) / Cmax / MRT last / Tmax / half-life: 90 mg/kg b.w. oral single dose
Experimental: The studies detailed below (and referred to as Examples 2 to 8) were conducted to provide comparative single dose oral pharmacokinetics data for Compound 1, as well as sodium and potassium salts of that compound, using non-coated and enteric-coated capsules in male New Zealand White rabbits.
Compound 1 was made using the process described in WO 2011/004162 and milled as described for Example 1c. The non-coated or enteric coated gelatin capsules were individually filled with 180 mg of dry-milled Compound 1 together with accompanying excipients as indicated. Both capsule types were filled with Compound 1 together with 1.8 mg of sodium docusate, 0.18 mg of PVP K30 and 9 mg of mannitol.
Similarly, Compound 2, non-coated or enteric coated gelatin capsules were individually filled with 180 mg of dry-milled Compound 2 (as obtained in Example 1f) together with 1.8 mg of sodium docusate, 0.18 mg of PVP K30 and 9 mg of mannitol.
For Compound 3, non-coated or enteric coated gelatin capsules were individually filled with 90 mg of dry-milled Compound 3 (as obtained in Example 1i) together with 0.90 mg of sodium docusate, 0.09 mg of PVP K30 and 4.50 mg of mannitol.
40 mL of the 2% w/v methyl cellulose solution was added to a 250 mL conical flask together with 10 g of 2 mm glass beads, and vigorously stirred. Compound 1 (720 mg) was slowly added to the solution and the mixture was with continuously stirred for 1 h. The homogenate was transferred to separate flask and its pH recorded. The suspension formulation was prepared before administration to the animals.
Adult healthy male New Zealand white rabbits aged approximately 2 to 3 months old were used for experimentation after 7 days of acclimatization.
To dose the filled capsules, a soft plastic dosing tube was used. The filled capsule was inserted into the dosing tube so that the short end of the capsule protrudes slightly from the tip of the tube. The tip of the capsule was dipped in mineral oil to aid swallowing.
To dose the suspension, an infant feeding tube was used. The feeding tube was inserted through the mouth of the rabbit to the oesophagus and the stomach, and ascertained that it has not been placed in the trachea before dosing to the animals. The suspension of the Compound 1 was administered through the feeding tube. After the administration of the suspension, drinking water of approximately 2.0-2.5 mL was administered to flush out the contents in the feeding tube.
The animals were restrained in a rabbit restrainer and blood samples (400-500 μL/time point) were collected via the central ear artery at 0.16, 0.25, 0.50, 1.0, 2.0, 4.0, 6.0, 8.0, 24.0, 48.0 and 72 hours post-dosing. Collected blood specimens were centrifuged at 4000 or 6000 rpm, 4° C. for 10 minutes and plasma samples were separated and stored at −80° C. until analysis.
Concentrations of the analyte of Compound 1 in New Zealand white rabbits was determined using an API 3200 Q-trap LC-MS/MS system.
Chromatographic separation was achieved on Zorbax C18, 50×4.6 mm, 5 μm column with methanol-0.1% formic acid as mobile phase with gradient elution. The flow rate was set at 1.0 mL min^−1. Detection was accomplished by a triple-quadrupole tandem mass spectrometer in multiple-reaction monitoring (MRM) scanning via electrospray ionization source, applied in the positive mode. The optimised mass transition ion-pairs for quantitation were m/z 379.999→125.000 for the compound 1 and m/z 376.165→165.00 for the ISD (Haloperidol). Calibration plots were linear over the range of 11.062 to 20594.820 ng/mL.
The data of plasma concentration to respective time points for the analyte Compound 1 were used for the pharmacokinetic analysis. Pharmacokinetic analysis was performed using non-compartmental analysis (NCA) module of Phoenix WinNonlin 6.3 software to determine the following pharmacokinetic parameters: • Cmax • Tmax • AUC0-t • AUC0-∞ • T1/2 • MRT […]

[2] = Particle size analysis of dry-milled products (laser diffraction, Shimadzu SALD-2300); type: physicochemical
Experimental: Milling was performed for Examples 1a to 1c using an air jet mill (Equipment code: CP-AJM-01; Promas engineers) with the following parameters: Micronisation was repeated in all examples by performing the air jet milling for a second time using the same parameters. This allowed the particle size D90 to be reduced to less than 10 μm. [table] Four drops of Tween 20 were added to 25 mL of water and the mixture was sonicated for 3 minutes to form the dispersant solution. 0.05 g of milled material was transferred into a 250 mL glass beaker. 25 mL of the dispersant solution (Tween 20/water mixture) was added to the beaker with continuous swirling for 2 to 3 minutes. The suspension was transferred into the measuring unit and the particle size distribution measurements were conducted in triplicate.

[3] = male, New Zealand White, rabbit, plasma, po, 90 mg/kg, enteric coated capsule, 90 mg/kg b.w. oral
[4] = male, New Zealand White, rabbit, plasma, po, 90 mg/kg, non-coated capsule, 90 mg/kg b.w. oral
[5] = male, New Zealand White, rabbit, plasma, po, 90 mg/kg, standard suspension, 90 mg/kg b.w. oral
[6] = male, New Zealand White, rabbit, plasma, po, 90 mg/kg, enteric coated capsule, rabbit plasma (Examples 5, 6, 7)
[7] = male, New Zealand White, rabbit, plasma, po, 90 mg/kg, non-coated capsule, rabbit plasma (Examples 2, 3, 4)
[8] = male, New Zealand White, rabbit, plasma, po, 90 mg/kg, standard suspension (2% w/v methylcellulose), rabbit plasma (Example 8)
[9] = after 1st milling (air jet mill)
[10] = after 2nd milling (air jet mill)

Plasma concentration, mean ([1]; 0.16 h, non-coated capsule, 90 mg/kg b.w. oral, rabbit): 0.000 ng/mL
Plasma concentration, mean ([1]; 0.25 h, non-coated capsule, 90 mg/kg b.w. oral, rabbit): 0.000 ng/mL
Plasma concentration, mean ([1]; 0.50 h, non-coated capsule, 90 mg/kg b.w. oral, rabbit): 50.474 ng/mL
Plasma concentration, mean ([1]; 1.00 h, enteric coated capsule, 90 mg/kg b.w. oral, rabbit): 0.000 ng/mL
Plasma concentration, mean ([1]; 1.00 h, non-coated capsule, 90 mg/kg b.w. oral, rabbit): 386.171 ng/mL
Plasma concentration, mean ([1]; 2.00 h, enteric coated capsule, 90 mg/kg b.w. oral, rabbit): 5.857 ng/mL
Plasma concentration, mean ([1]; 2.00 h, non-coated capsule, 90 mg/kg b.w. oral, rabbit): 1530.898 ng/mL
Plasma concentration, mean ([1]; 4.00 h, enteric coated capsule, 90 mg/kg b.w. oral, rabbit): 206.003 ng/mL
Plasma concentration, mean ([1]; 6.00 h, enteric coated capsule, 90 mg/kg b.w. oral, rabbit): 307.917 ng/mL
Plasma concentration, mean ([1]; 6.00 h, non-coated capsule, 90 mg/kg b.w. oral, rabbit): 25336.370 ng/mL
Plasma concentration, mean ([1]; 8.00 h, enteric coated capsule, 90 mg/kg b.w. oral, rabbit): 1505.092 ng/mL
Plasma concentration, mean ([1]; 24.00 h, enteric coated capsule, 90 mg/kg b.w. oral, rabbit): 45705.076 ng/mL
Plasma concentration, mean ([1]; 72.00 h, non-coated capsule, 90 mg/kg b.w. oral, rabbit): 35657.688 ng/mL
AUCextrap ([1]; enteric coated capsule, rabbit plasma (Examples 5, 6, 7)): 82.44 ± 9.84%
concentration at 0 h [1, 3]: 0 ng/mL
concentration at 0 h [1, 4]: 0 ng/mL
concentration at 0 h [1, 5]: 0 ng/mL
concentration at 0.16 h ([1]; male, New Zealand White, rabbit, plasma, po, 90 mg/kg, 0.16 h, enteric coated capsule, 90 mg/kg b.w. oral): 0 ng/mL
concentration at 0.16 h ([1]; male, New Zealand White, rabbit, plasma, po, 90 mg/kg, 0.16 h, standard suspension, 90 mg/kg b.w. oral): 1210 ng/mL
concentration at 0.25 h ([1]; male, New Zealand White, rabbit, plasma, po, 90 mg/kg, 0.25 h, enteric coated capsule, 90 mg/kg b.w. oral): 0 ng/mL
concentration at 0.25 h ([1]; male, New Zealand White, rabbit, plasma, po, 90 mg/kg, 0.25 h, standard suspension, 90 mg/kg b.w. oral): 4420 ng/mL
concentration at 0.5 h ([1]; male, New Zealand White, rabbit, plasma, po, 90 mg/kg, 0.50 h, enteric coated capsule, 90 mg/kg b.w. oral): 0 ng/mL
concentration at 0.5 h ([1]; male, New Zealand White, rabbit, plasma, po, 90 mg/kg, 0.50 h, standard suspension, 90 mg/kg b.w. oral): 7250 ng/mL
concentration at 1 h ([1]; male, New Zealand White, rabbit, plasma, po, 90 mg/kg, 1.00 h, standard suspension, 90 mg/kg b.w. oral): 9390 ng/mL
concentration at 2 h ([1]; male, New Zealand White, rabbit, plasma, po, 90 mg/kg, 2.00 h, standard suspension, 90 mg/kg b.w. oral): 10100 ng/mL
concentration at 4 h ([1]; male, New Zealand White, rabbit, plasma, po, 90 mg/kg, 4.00 h, non-coated capsule, 90 mg/kg b.w. oral): 13400 ng/mL
concentration at 4 h ([1]; male, New Zealand White, rabbit, plasma, po, 90 mg/kg, 4.00 h, standard suspension, 90 mg/kg b.w. oral): 11600 ng/mL
concentration at 6 h ([1]; male, New Zealand White, rabbit, plasma, po, 90 mg/kg, 6.00 h, standard suspension, 90 mg/kg b.w. oral): 139000 ng/mL
concentration at 8 h ([1]; male, New Zealand White, rabbit, plasma, po, 90 mg/kg, 8.00 h, non-coated capsule, 90 mg/kg b.w. oral): 39200 ng/mL
concentration at 8 h ([1]; male, New Zealand White, rabbit, plasma, po, 90 mg/kg, 8.00 h, standard suspension, 90 mg/kg b.w. oral): 28700 ng/mL
concentration at 24 h ([1]; male, New Zealand White, rabbit, plasma, po, 90 mg/kg, 24.00 h, non-coated capsule, 90 mg/kg b.w. oral): 63600 ng/mL
concentration at 24 h ([1]; male, New Zealand White, rabbit, plasma, po, 90 mg/kg, 24.00 h, standard suspension, 90 mg/kg b.w. oral): 18400 ng/mL
concentration at 48 h [1, 3]: 59700 ng/mL
concentration at 48 h [1, 4]: 54800 ng/mL
concentration at 48 h [1, 5]: 8830 ng/mL
concentration at 72 h ([1]; male, New Zealand White, rabbit, plasma, po, 90 mg/kg, 72.00 h, enteric coated capsule, 90 mg/kg b.w. oral): 52300 ng/mL
concentration at 72 h ([1]; male, New Zealand White, rabbit, plasma, po, 90 mg/kg, 72.00 h, standard suspension, 90 mg/kg b.w. oral): 3030 ng/mL
AUC(0-inf) [1, 6]: 18600 ± 12800 µg·h/mL
AUC(0-t) [1, 6]: 2990 ± 666 µg·h/mL
Cmax [1, 6]: 60800 ± 15700 ng/mL
MRT last [1, 6]: 45.2 ± 2.54 h
Tmax [1, 6]: 40 ± 13.9 h
half-life [1, 6]: 252 ± 133 h
AUC(0-inf) [1, 7]: 7390 ± 3870 µg·h/mL
AUC(0-t) [1, 7]: 3450 ± 405 µg·h/mL
Cmax [1, 7]: 63700 ± 3790 ng/mL
MRT last [1, 7]: 36.9 ± 2.56 h
Tmax [1, 7]: 32 ± 13.9 h
half-life [1, 7]: 68.2 ± 43 h
AUC(0-inf) [1, 8]: 1120 µg·h/mL
AUC(0-t) [1, 8]: 952 ± 175 µg·h/mL
Cmax [1, 8]: 31200 ± 11500 ng/mL
MRT last [1, 8]: 25 ± 5 h
Tmax [1, 8]: 19 ± 9 h
half-life [1, 8]: 36 ± 8 h
AUCextrap ([1]; non-coated capsule, rabbit plasma (Examples 2, 3, 4)): 46.71 ± 19.06%
AUCextrap ([1]; standard suspension (2% w/v methylcellulose), rabbit plasma (Example 8)): 14 ± 9%
Particle size distribution D10 [2, 9]: 1.8 μm
Particle size distribution D50 [2, 9]: 5.0 μm
Particle size distribution D90 [2, 9]: 11.4 μm
Particle size distribution D100 [2, 9]: 33.7 μm
Particle size distribution D10 [2, 10]: 1.2 μm
Particle size distribution D50 [2, 10]: 3.7 μm
Particle size distribution D90 [2, 10]: 8.3 μm
Particle size distribution D100 [2, 10]: 21.4 μm
Particle size distribution D10 ([2]; before milling): 13.5 μm
Particle size distribution D50 ([2]; before milling): 28.0 μm
Particle size distribution D90 ([2]; before milling): 55.2 μm
Particle size distribution D100 ([2]; before milling): 187.0 μm
Compound: O=C(Nc1nc(=O)n(Cc2ccc(Cl)cc2)s1)c1ccc(Cl)cc1 [Compound 1, 4-Chloro-N-[2-[(4-chlorophenyl)methyl]-3-oxo-1,2,4-thiadiazol-5-yl]benzamide]
